Measured values published in ChEMBL document CHEMBL5579821, “Non-kinase off-target inhibitory activities of clinically-relevant kinase inhibitors” (Eur J Med Chem, 2024).
Each block holds one compound with its values, some of them ahead of it.

Key:
Adenosine receptor A3 = target: T1, Adenosine receptor A3 (Homo sapiens, UniProt P0DMS8)
T1 sequence (P0DMS8 whole entry): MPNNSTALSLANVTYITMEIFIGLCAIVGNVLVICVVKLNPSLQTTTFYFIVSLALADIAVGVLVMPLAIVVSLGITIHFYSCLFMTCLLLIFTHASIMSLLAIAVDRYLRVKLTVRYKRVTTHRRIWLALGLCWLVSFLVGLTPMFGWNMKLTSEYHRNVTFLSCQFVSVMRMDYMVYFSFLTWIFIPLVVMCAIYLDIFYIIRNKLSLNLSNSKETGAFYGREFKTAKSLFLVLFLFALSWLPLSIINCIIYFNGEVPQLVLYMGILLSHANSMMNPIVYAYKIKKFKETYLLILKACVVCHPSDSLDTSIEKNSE

clinical [1] = conditions: human, plasma, 5 mg
[2] = target: T2, Aldo-keto reductase family 1 member C3 (Homo sapiens, UniProt P42330)
T2 sequence (P42330 whole entry): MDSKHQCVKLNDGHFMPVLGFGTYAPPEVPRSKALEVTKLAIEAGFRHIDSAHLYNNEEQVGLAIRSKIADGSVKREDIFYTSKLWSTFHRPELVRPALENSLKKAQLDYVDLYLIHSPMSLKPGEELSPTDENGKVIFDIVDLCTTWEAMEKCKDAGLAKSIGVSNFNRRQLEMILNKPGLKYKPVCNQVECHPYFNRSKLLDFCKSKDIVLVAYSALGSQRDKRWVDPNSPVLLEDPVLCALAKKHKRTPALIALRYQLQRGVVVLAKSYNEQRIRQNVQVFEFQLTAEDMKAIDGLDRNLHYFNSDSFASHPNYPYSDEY

clinical [3] = conditions: human, 300 mg
clinical [4] = conditions: human, in vivo, po, 50 mg
cells = conditions: Homo sapiens, NIH3T3
clinical [5] = conditions: human, plasma
[6] = target: Proto-oncogene tyrosine-protein kinase receptor Ret (Homo sapiens, UniProt P07949)
Chain of Proto-oncogene tyrosine-protein kinase receptor Ret (P07949 whole entry): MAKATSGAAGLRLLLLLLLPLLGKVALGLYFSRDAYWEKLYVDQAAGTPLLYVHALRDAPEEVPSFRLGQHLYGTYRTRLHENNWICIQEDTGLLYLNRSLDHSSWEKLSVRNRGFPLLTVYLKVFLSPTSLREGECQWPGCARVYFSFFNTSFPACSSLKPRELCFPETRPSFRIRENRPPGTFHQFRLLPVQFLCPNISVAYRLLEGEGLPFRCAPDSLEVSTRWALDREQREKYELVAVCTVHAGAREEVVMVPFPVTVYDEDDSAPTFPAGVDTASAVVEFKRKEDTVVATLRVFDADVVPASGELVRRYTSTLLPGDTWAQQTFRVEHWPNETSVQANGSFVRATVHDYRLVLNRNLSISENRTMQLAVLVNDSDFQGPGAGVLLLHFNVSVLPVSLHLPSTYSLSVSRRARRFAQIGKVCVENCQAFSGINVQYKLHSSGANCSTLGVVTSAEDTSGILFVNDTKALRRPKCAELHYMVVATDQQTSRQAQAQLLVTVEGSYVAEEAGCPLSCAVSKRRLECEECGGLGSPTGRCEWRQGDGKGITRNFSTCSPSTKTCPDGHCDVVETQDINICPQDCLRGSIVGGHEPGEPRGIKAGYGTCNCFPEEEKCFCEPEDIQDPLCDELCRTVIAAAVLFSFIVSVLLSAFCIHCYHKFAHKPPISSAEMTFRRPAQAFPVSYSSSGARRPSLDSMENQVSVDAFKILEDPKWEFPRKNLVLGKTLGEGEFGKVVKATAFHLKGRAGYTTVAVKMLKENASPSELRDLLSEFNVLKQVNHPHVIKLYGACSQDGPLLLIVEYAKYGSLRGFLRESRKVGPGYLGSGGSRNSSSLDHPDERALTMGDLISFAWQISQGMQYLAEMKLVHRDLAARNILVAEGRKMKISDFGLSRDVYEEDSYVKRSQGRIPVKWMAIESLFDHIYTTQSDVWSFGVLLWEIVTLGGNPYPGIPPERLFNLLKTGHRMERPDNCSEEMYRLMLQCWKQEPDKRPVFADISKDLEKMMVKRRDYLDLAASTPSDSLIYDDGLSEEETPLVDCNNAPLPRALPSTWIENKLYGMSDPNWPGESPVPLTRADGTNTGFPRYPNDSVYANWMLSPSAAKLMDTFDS

Cmax (clinical [1]): 27.8 ng/mL
Compound: CNC(=O)c1ccccc1Sc1ccc2c(/C=C/c3ccccn3)n[nH]c2c1 [AXITINIB]

IC50 (cells): 374 nM
Cmax (clinical [5]): 1640 ng/mL
Compound: Cc1cn(-c2cc(NC(=O)c3ccc(C)c(Nc4nccc(-c5cccnc5)n4)c3)cc(C(F)(F)F)c2)cn1 [NILOTINIB]

IC50 [6]: 4.8 nM
Compound: CCCS(=O)(=O)Nc1ccc(F)c(C(=O)c2c[nH]c3ncc(-c4ccc(Cl)cc4)cc23)c1F [VEMURAFENIB]

The next lines start with the compound.

Compound: COc1cc(Nc2ncc(F)c(Nc3ccc4c(n3)NC(=O)C(C)(C)O4)n2)cc(OC)c1OC
IC50 (Adenosine receptor A3): 18 nM

Compound: CCc1cnn2c(NCc3ccc[n+]([O-])c3)cc(N3CCCC[C@H]3CCO)nc12 [DINACICLIB]
Kd [2]: 69 nM

Compound: Cc1cnc(Nc2ccc(OCCN3CCCC3)cc2)nc1Nc1cccc(S(=O)(=O)NC(C)(C)C)c1 [FEDRATINIB]
Cmax (clinical [3]): 971 ng/mL

Compound: CO[C@@H]1[C@H](N(C)C(=O)c2ccccc2)C[C@H]2O[C@]1(C)n1c3ccccc3c3c4c(c5c6ccccc6n2c5c31)C(=O)NC4 [MIDOSTAURIN]
Cmax at 192 h (clinical [4]): 1600 ng/mL
